Experimental data reported in patent US20100227853A1, “INHIBITORS OF CYCLIC AMP PHOSPHODIESTERASES” (Trustees of Boston College, priority 2008, published 2010).

Tests used:
[1] = molecular target: T1, PDE7B (Homo sapiens, UniProt Q9NP56); experiment: 5FOA growth assay in fission yeast strain expressing PDE7B; type: cell-based; set-up: targets used in the assays are full-length proteins (as opposed to simply the catalytic domain); expressed in transfected cells; host or cells: Schizosaccharomyces pombe; settings: OD600 0.6; read-out: ED50 for 5FOA growth assays, PDE7B
Procedure: PDE inhibition allows growth in 5FOA medium as measured by optical density after 48 hours incubation at 30° C. Compound BC12 and six structural analogs were tested for growth stimulation.
Cells were pregrown in EMM medium [MP Biomedicals (Solon, Ohio), 3% glucose, filter-sterilized to avoid carmelization, which would introduce variability into the optical density of the medium] containing from 0 mM to 2.5 mM cAMP (or either 0.5 mM or 1.0 mM cGMP). This was to repress expression of the fbp1-ura4 reporter prior to exposure of cells to 5FOA medium. Cells were grown at 30° C. to exponential phase (approximately 10^7 cells/ml). Cells were collected by centrifugation and resuspended in 5FOA medium, and 25 μl were transferred to 384-well microtiter dishes (untreated, with flat clear bottoms) that had been pre-filled with 25 μl 5FOA medium and pre-pinned with 100 nl of compounds (stock solutions were generally 10 mM). Starting cell concentrations ranged from 0.5×10^5 to 4×10^5 cells/ml depending on the screening strain. […] Other positive control dishes contained 5 mM cAMP in the 5FOA medium for PDEs that lack appropriate control compounds. Cultures were grown for 48 hours at 30° C., sealed in an airtight container with moist paper towels to prevent evaporation. Optical densities (OD600) of cultures were measured using a microplate reader. Bioinformatic analysis of the results to determine composite Z scores was performed as previously described (1, 3).
Target sequence in this assay (Q9NP56 whole entry, species assumed, the tested form may be a part): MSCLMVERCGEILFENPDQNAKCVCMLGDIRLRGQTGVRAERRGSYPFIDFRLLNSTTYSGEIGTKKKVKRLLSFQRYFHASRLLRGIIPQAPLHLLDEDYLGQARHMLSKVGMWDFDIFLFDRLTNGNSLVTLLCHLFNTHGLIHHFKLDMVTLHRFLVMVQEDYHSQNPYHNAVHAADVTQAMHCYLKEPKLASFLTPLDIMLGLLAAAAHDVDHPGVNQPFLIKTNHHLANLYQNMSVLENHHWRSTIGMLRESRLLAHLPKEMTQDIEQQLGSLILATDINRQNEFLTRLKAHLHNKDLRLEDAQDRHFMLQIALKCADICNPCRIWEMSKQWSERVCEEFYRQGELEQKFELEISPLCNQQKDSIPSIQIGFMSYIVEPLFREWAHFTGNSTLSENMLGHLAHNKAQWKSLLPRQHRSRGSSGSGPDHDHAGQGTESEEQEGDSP

[2] = molecular target: T1, PDE7B; experiment: in vitro enzyme assay, PDE7B catalytic domain from E. coli, hydrolysis of cAMP to AMP; type: biochemical; set-up: The PDE7B catalytic domain was expressed in and purified from E. coli; made in house; host or cells: E. coli
Procedure: The PDE7B catalytic domain was expressed in and purified from E. coli and tested for activity in an in vitro enzyme assay, measuring the hydrolysis of cAMP to AMP. Four dilutions of the enzyme preparation were tested at various compound concentrations (X axis). The percent of cAMP hydrolyzed is plotted on the Y axis.
Target sequence in this assay (Q9NP56 97-420 limits assumed, species assumed): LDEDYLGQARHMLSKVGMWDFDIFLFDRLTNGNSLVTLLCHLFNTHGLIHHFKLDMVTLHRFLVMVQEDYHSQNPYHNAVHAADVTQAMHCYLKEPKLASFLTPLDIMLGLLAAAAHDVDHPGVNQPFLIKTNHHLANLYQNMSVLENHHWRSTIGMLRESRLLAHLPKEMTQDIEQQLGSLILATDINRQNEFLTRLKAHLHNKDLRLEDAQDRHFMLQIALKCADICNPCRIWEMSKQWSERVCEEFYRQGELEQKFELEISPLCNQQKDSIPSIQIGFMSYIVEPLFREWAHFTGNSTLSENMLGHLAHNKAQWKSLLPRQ

[3] = molecular target: T2, PDE4A1 (Mus musculus, UniProt O89084); experiment: cAMP response in yeast strain expressing PDE4A1; type: cell-based, Murine
T2 construct: targets used in the assays are full-length proteins (as opposed to simply the catalytic domain); expressed in transfected cells; host or cells: Schizosaccharomyces pombe, PDE gene integrated in place of cgs2
T2 sequence (O89084 1-610 isoform O89084-2): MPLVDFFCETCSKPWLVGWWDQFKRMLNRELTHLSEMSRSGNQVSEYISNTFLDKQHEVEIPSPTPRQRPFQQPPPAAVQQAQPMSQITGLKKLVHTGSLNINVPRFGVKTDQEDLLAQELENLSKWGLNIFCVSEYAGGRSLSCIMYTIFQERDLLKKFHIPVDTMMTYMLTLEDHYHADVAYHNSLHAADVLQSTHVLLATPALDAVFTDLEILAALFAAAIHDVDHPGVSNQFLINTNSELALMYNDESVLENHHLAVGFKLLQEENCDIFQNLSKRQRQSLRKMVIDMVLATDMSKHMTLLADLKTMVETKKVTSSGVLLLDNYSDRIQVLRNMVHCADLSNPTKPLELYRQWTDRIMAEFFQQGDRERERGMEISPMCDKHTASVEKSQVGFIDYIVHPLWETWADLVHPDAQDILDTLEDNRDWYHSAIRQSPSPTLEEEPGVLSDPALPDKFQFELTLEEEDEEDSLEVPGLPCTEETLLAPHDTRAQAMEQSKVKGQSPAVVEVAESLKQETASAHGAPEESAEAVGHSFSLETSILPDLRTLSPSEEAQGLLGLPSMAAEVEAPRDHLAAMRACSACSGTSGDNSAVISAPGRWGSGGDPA
From the text: (§1) Values represent the average and SD of two or three independent experiments. […] The strains used are as in FIG. 5A, together with strain CHP1141 (PDE8A). Values represent the average and SD of two or three independent experiments.
(§2) Thus, PDE inhibition can be indirectly quantitated by measuring the effect of a compound on cAMP levels in target yeast strains.

[4] = molecular target: T3, PDE4B3 (Mus musculus, UniProt Q8VBU5); experiment: cAMP response in yeast strain expressing PDE4B3; type: cell-based, Murine
T3 construct: targets used in the assays are full-length proteins (as opposed to simply the catalytic domain); expressed in transfected cells; host or cells: Schizosaccharomyces pombe, PDE gene integrated in place of cgs2
T3 sequence (Q8VBU5 1-721): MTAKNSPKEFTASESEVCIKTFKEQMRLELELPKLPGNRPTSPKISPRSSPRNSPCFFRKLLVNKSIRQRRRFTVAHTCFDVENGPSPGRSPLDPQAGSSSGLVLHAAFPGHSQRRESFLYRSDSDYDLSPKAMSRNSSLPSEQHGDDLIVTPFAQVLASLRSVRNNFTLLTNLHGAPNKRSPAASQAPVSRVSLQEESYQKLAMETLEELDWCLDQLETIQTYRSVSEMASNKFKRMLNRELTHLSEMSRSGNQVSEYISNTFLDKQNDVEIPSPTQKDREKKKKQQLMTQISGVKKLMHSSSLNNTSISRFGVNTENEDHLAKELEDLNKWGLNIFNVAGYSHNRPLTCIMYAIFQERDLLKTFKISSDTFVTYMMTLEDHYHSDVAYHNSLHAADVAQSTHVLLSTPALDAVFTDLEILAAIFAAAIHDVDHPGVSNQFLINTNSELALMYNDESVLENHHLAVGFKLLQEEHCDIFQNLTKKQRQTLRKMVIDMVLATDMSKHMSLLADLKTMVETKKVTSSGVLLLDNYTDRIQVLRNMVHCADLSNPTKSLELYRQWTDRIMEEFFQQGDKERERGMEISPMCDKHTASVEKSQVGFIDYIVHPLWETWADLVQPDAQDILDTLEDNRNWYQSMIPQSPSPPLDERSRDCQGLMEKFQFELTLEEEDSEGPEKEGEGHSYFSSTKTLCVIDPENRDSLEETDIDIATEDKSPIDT
From the text: as §1, §2

[5] = test system: PDE4A, PDE4B, PDE4D, PDE7A, PDE7B, PDE8A, PDE3A; experiment: Summary of PDE inhibitor profile; set-up: key: (1): Strong PDE7A inhibitor, weak to moderate PDE4A, 4B inhibitor; (2): Strong PDE7A and PDE4s (including PDE4D) inhibitor; (3): Strong PDE7A inhibitor; settings: overall classification, Table 18 footnotes

SMILES: CCN(CC)c1ncnc2sc3c(c12)CCCC3 [BC44]
- EC50 [1]: 2.1 µM

SMILES: Cc1c(C(=O)Nc2ccc(F)cc2F)sc2ncnc(N3CCC(C)CC3)c12 [BC58]
- PDE7B, 2 uM cpm ([2]; 2 uM compound): 15093 cpm

SMILES: Cc1sc2ncnc(Nc3ccccc3)c2c1C [BC64]
- EC50 [1]: > 200 µM

SMILES: COC(=O)C1=C(C)N(C2CCCCC2)C(=O)/C1=C\c1cccs1 [Compound 22]
- cAMP Response (% rolipram), 4A1 [3]: 54.00 % rolipram
- cAMP Response (% rolipram), 4B3 [4]: 51.00 % rolipram

SMILES: COC(=O)C1=C(C)N(c2ccccc2Cl)C(=O)/C1=C\c1cccs1 [Compound 27]
- cAMP Response (% rolipram), 4A1 [3]: 78.00 % rolipram
- cAMP Response (% rolipram), 4B3 [4]: 71.00 % rolipram

SMILES: N#Cc1sc2sc(C#N)c(-c3ccco3)c2c1N [Compound 30]
- IC50 ([2]; AC200 = [Compound] that doubles PDE activity, read-out: IC50 (or AC200), PDE7B): 12 µM
- cAMP Response, 4A1 ([3]; Table 16, unit not given): 65.7
- cAMP Response, 4B3 ([4]; Table 16, unit not given): 67

SMILES: COc1ccc2c(c1)[C@@]1(C)CCC[C@](C)(CO)C1CC2 (stereo partly drawn) [Compound 2067M03]
- PDE inhibitor profile (Table 18) [5]: 2067M03 (1)

SMILES: Cc1ccc2c(c1)CCC1CC(=O)CC[C@]21C (stereo partly drawn) [Compound 2158J12]
- PDE inhibitor profile (Table 18) [5]: 2158J12 (2)
